Assay results from PubChem BioAssay AID1963828 (Molecular Pharmacology Branch, DTP, NCI, 2024).

Tested on: 991263-137-R1-J2-PDC complex spheroid viability
Test: Anticancer human tumor 991263-137-R1-J2-PDC patient-derived colon adenocarcinoma cell line growth inhibition [POLQ]
Details: for IC50: curve of first compound; for viability, T/C: stronger effect = lower value
Summary of the method: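 Complex spheroid viability model combining PDC tumour cells with endothelial (HUVEC) and MSC stromal cells. Novobiocin, ART-558 or RP6685 were tested singly and in combination with standard and investigational anticancer drugs. Each was titrated in half-log steps from near clinical Cmax, or from 10 microM where Cmax was unknown.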

[1] = second compound 0.0316 µM, first compound 0.0316 µM
[2] = second compound 0.0316 µM, first compound 0.1 µM
[3] = second compound 0.0316 µM, first compound 0.316 µM
[4] = second compound 0.0316 µM, first compound 1 µM
[5] = second compound 0.0316 µM, first compound 3.16 µM
[6] = second compound 0.0316 µM, first compound 10 µM
[7] = second compound 0.1 µM, first compound 0.0316 µM
[8] = second compound 0.1 µM, first compound 0.1 µM
[9] = second compound 0.1 µM, first compound 0.316 µM
[10] = second compound 0.1 µM, first compound 1 µM
[11] = second compound 0.1 µM, first compound 3.16 µM
[12] = second compound 0.1 µM, first compound 10 µM
[13] = second compound 0.316 µM, first compound 0.0316 µM
[14] = second compound 0.316 µM, first compound 0.1 µM
[15] = second compound 0.316 µM, first compound 0.316 µM
[16] = second compound 0.316 µM, first compound 1 µM
[17] = second compound 0.316 µM, first compound 3.16 µM
[18] = second compound 0.316 µM, first compound 10 µM
[19] = second compound 1 µM, first compound 0.0316 µM
[20] = second compound 1 µM, first compound 0.1 µM
[21] = second compound 1 µM, first compound 0.316 µM
[22] = second compound 1 µM, first compound 1 µM
[23] = second compound 1 µM, first compound 3.16 µM
[24] = second compound 1 µM, first compound 10 µM
[25] = second compound 3.16 µM, first compound 0.0316 µM
[26] = second compound 3.16 µM, first compound 0.1 µM
[27] = second compound 3.16 µM, first compound 0.316 µM
[28] = second compound 3.16 µM, first compound 1 µM
[29] = second compound 3.16 µM, first compound 3.16 µM
[30] = second compound 3.16 µM, first compound 10 µM
[31] = second compound 10 µM, first compound 0.0316 µM
[32] = second compound 10 µM, first compound 0.1 µM
[33] = second compound 10 µM, first compound 0.316 µM
[34] = second compound 10 µM, first compound 1 µM
[35] = second compound 10 µM, first compound 3.16 µM
[36] = second compound 10 µM, first compound 10 µM
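Note: spheroids exposed to compounds for 7 days before readout.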
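Throughout, for viability, T/C: 100% = DMSO vehicle control viability.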

C=CC(=O)N1CCN(c2nc(=O)n(-c3c(C)ccnc3C(C)C)c3nc(-c4c(O)cccc4F)c(F)cc23)C(C)C1 (stereo unspecified) + Cc1cccc(N(C)C(=O)C2C(O)CCN2c2nc(C)cc(C(F)(F)F)c2C#N)c1
IC50 (second compound 0.0316 µM): > 10 µM
IC50 (second compound 0.1 µM): > 10 µM
IC50 (second compound 0.316 µM): > 10 µM
IC50 (second compound 1 µM): > 10 µM
IC50 (second compound 3.16 µM): > 10 µM
IC50 (second compound 10 µM): > 10 µM
viability, T/C [1]: 104%
viability, T/C [2]: 109%
viability, T/C [3]: 93.5%
viability, T/C [4]: 103%
viability, T/C [5]: 114%
viability, T/C [6]: 115%
viability, T/C [7]: 114%
viability, T/C [8]: 112%
viability, T/C [9]: 102%
viability, T/C [10]: 90.5%
viability, T/C [11]: 116%
viability, T/C [12]: 107%
viability, T/C [13]: 97.6%
viability, T/C [14]: 107%
viability, T/C [15]: 102%
viability, T/C [16]: 90.3%
viability, T/C [17]: 120%
viability, T/C [18]: 104%
viability, T/C [19]: 88%
viability, T/C [20]: 117%
viability, T/C [21]: 107%
viability, T/C [22]: 81.7%
viability, T/C [23]: 115%
viability, T/C [24]: 124%
viability, T/C [25]: 98.7%
viability, T/C [26]: 118%
viability, T/C [27]: 95.7%
viability, T/C [28]: 91.7%
viability, T/C [29]: 123%
viability, T/C [30]: 107%
viability, T/C [31]: 101%
viability, T/C [32]: 107%
viability, T/C [33]: 108%
viability, T/C [34]: 116%
viability, T/C [35]: 116%
viability, T/C [36]: 103%

CC(C)n1c(=O)n(C)c2cnc3cc(F)c(-c4ccc(OCCCN5CCCCC5)nc4)cc3c21 + Cc1cccc(N(C)C(=O)C2C(O)CCN2c2nc(C)cc(C(F)(F)F)c2C#N)c1
IC50 (second compound 0.0316 µM): > 10 µM
IC50 (second compound 0.1 µM): > 10 µM
IC50 (second compound 0.316 µM): > 10 µM
IC50 (second compound 1 µM): > 10 µM
IC50 (second compound 3.16 µM): > 10 µM
IC50 (second compound 10 µM): > 10 µM
viability, T/C [1]: 98.9%
viability, T/C [2]: 97.1%
viability, T/C [3]: 99.3%
viability, T/C [4]: 90.9%
viability, T/C [5]: 98.3%
viability, T/C [6]: 83.9%
viability, T/C [7]: 96.6%
viability, T/C [8]: 99.9%
viability, T/C [9]: 115%
viability, T/C [10]: 90.7%
viability, T/C [11]: 74%
viability, T/C [12]: 79%
viability, T/C [13]: 83.8%
viability, T/C [14]: 101%
viability, T/C [15]: 102%
viability, T/C [16]: 106%
viability, T/C [17]: 109%
viability, T/C [18]: 80.4%
viability, T/C [19]: 92.1%
viability, T/C [20]: 99.5%
viability, T/C [21]: 116%
viability, T/C [22]: 90.8%
viability, T/C [23]: 99.1%
viability, T/C [24]: 81.2%
viability, T/C [25]: 85.9%
viability, T/C [26]: 98.3%
viability, T/C [27]: 90.2%
viability, T/C [28]: 101%
viability, T/C [29]: 109%
viability, T/C [30]: 61.3%
viability, T/C [31]: 82%
viability, T/C [32]: 104%
viability, T/C [33]: 86.7%
viability, T/C [34]: 80.1%
viability, T/C [35]: 111%
viability, T/C [36]: 67.2%

CC1COCCN1c1cc(-c2ccnn2C)c2ccnc(-c3ccn[nH]3)c2n1 (stereo unspecified) + Cc1cccc(N(C)C(=O)C2C(O)CCN2c2nc(C)cc(C(F)(F)F)c2C#N)c1
IC50 (second compound 0.0316 µM): 0.948 µM
IC50 (second compound 0.1 µM): 1 µM
IC50 (second compound 0.316 µM): 0.77 µM
IC50 (second compound 1 µM): 0.99 µM
IC50 (second compound 3.16 µM): 1.43 µM
IC50 (second compound 10 µM): 0.851 µM
viability, T/C [1]: 99.7%
viability, T/C [2]: 96.8%
viability, T/C [3]: 81.5%
viability, T/C [4]: 47.6%
viability, T/C [5]: 36.2%
viability, T/C [6]: 29.4%
viability, T/C [7]: 125%
viability, T/C [8]: 97.6%
viability, T/C [9]: 81.8%
viability, T/C [10]: 45.2%
viability, T/C [11]: 35.7%
viability, T/C [12]: 33.5%
viability, T/C [13]: 94.4%
viability, T/C [14]: 110%
viability, T/C [15]: 75.4%
viability, T/C [16]: 44.3%
viability, T/C [17]: 35.1%
viability, T/C [18]: 28.8%
viability, T/C [19]: 90.3%
viability, T/C [20]: 99.3%
viability, T/C [21]: 64.3%
viability, T/C [22]: 53.3%
viability, T/C [23]: 39.3%
viability, T/C [24]: 30.7%
viability, T/C [25]: 88.8%
viability, T/C [26]: 114%
viability, T/C [27]: 89%
viability, T/C [28]: 58.2%
viability, T/C [29]: 32.9%
viability, T/C [30]: 31.6%
viability, T/C [31]: 103%
viability, T/C [32]: 104%
viability, T/C [33]: 78.3%
viability, T/C [34]: 46%
viability, T/C [35]: 34.9%
viability, T/C [36]: 32.1%
